Drawing on the Deep4Chem optical property database, this text covers absorption maximum for 43 molecules.

Structures are written as SMILES. Several values for one entry are separate records, joined by “and”; a condition that tells them apart may be missing. Equal entries are not always repeated.

The series can be described thus: solvent given as SMILES.

Molecule `CN(C)c1ccc(C2=Nc3scc[n+]3[B-](F)(F)O2)cc1` gave an absorption maximum (in C1CCOC1) of 402 nm, an absorption maximum (in CC#N) of 402 nm, an absorption maximum (in Cc1ccccc1) of 405 nm and an absorption maximum (in ClCCl) of 407 nm.
For `F[B-]1(F)OC(/C=C/c2ccccc2)=CC(c2ccccc2)=[O+]1`, for the setting “in ClCCl”, the absorption maximum was 398 nm.
Where the note is “in ClC(Cl)Cl”, `N#Cc1nc(N(Cc2ccccc2I)Cc2ccccc2I)c(C#N)nc1N(Cc1ccccc1I)Cc1ccccc1I` gave an absorption maximum of 487 nm.
Regarding `CC(C)(C)c1ccc(-c2c(-c3cccc(-n4c5ccccc5c5ccccc54)c3)c(C#N)c(-c3cccc(-n4c5ccccc5c5ccccc54)c3)c(-c3ccc(C(C)(C)C)cc3)c2-c2ccc(C(C)(C)C)cc2)cc1`, the absorption maximum (in C1CCOC1) worked out at 360 nm.
Consider `Cc1cc(O)c(C(=O)/C=C/c2cccc(O)c2)c(=O)o1`, for which the absorption maximum runs as follows: (in CC#N) 367 nm; (in ClCCl) 374 nm.
The molecule `OC1(c2ccc(-c3cccs3)s2)CCC1` displayed an absorption maximum (in C1CCOC1) of 311 nm; an absorption maximum (in CC#N) of 309 nm; an absorption maximum (in CCCCCC) of 308 nm; an absorption maximum (in CCO) of 310 nm; an absorption maximum (in OCCOCCO) of 314 nm; an absorption maximum (in c1ccncc1) of 316 nm.
Molecule `O=S1(=O)c2ccccc2Oc2cc(N3c4ccccc4C4(c5ccccc53)c3ccccc3N(c3ccc5c(c3)Oc3ccccc3S5(=O)=O)c3ccccc34)ccc21` showed an absorption maximum (in Cc1ccccc1) of 359.89 nm.
Consider `COc1ccc(-c2nc(-c3ccccc3O)c(-c3ccccc3O)n2-c2ccc(C)cc2)cc1`, for which the absorption maximum runs as follows: (in C1CCOC1) 305 nm; (in CS(C)=O) 308 nm; (in ClC(Cl)Cl) 304 nm; (in ClCCl) 304 nm.
With `c1ccc(-c2nc(-c3ccccc3)c(N(c3ccccc3)c3ccccc3)[se]2)cc1`, the absorption maximum (in ClC(Cl)Cl) stood at 384 nm.
For `Cn1cccc1-c1cc(C#N)ccc1C#N`, the absorption maximum was 370 nm (in C1CCOC1); 359 nm (in CC#N); 366 nm (in CCCCCC); 370 nm (in CCCCOCCCC); 364 nm (in CCOCC).
Molecule `CC1(C)C(/C=C/C2=C(Cl)C(=C/C=C3/N(Cc4ccc(F)cc4)c4ccccc4C3(C)C)/CCC2)=[N+](Cc2ccc(F)cc2)c2ccccc21` showed an absorption maximum (in CO) of 784 nm.
Take `COC(=O)C1=C(C(=O)OC)C2(c3ccccc3-c3ccccc32)[C@@H](c2ccc([N+](=O)[O-])cc2)C=C2c3cc(OC)c(OC)cc3CCN21`: the absorption maximum (in ClCCl) was found to be 310 nm.
In the case of `CN(C)c1ccc(-c2nc3nccnc3n2-c2ccccc2)cc1`, where the note is “in CC#N”, the absorption maximum is 371 nm.
In the case of `CSc1nccc(/C=C/c2ccc(N(c3ccccc3)c3ccc(/C=C/c4ccnc(SC)n4)cc3)cc2)n1`, the absorption maximum (in ClCCl) was 430 nm.
For `CCN(CC)c1ccc2c(c1)oc(=O)c1cc3cnn(-c4ccccc4)c3nc12`, the absorption maximum (in ClCCl) is recorded as 379 nm.
On the same count and under the same terms, the figure for `Cc1ccc(-c2c3nc(c(-c4ccc(C)cc4)c4ccc([nH]4)c(-c4ccc(OC(=O)C(C)c5cccc(C(=O)c6ccccc6)c5)cc4)c4nc(c(-c5ccc(C)cc5)c5ccc2[nH]5)C=C4)C=C3)cc1` (centres undefined) is 649 nm; for `CC1(C)C2=C(c3ccccc31)S(=O)(=O)c1ccccc12` it is 355 nm.
As to `Cc1ccc2c(c1)c(=O)c1ccccc1n2CCCCCC(=O)O`, the absorption maximum (in O) is 419 nm.
Regarding `CCCCCCCCCCCCOc1ccc(C2=C3C(=O)N(CC(OCC)OCC)C(c4ccc(OCCCCCCCCCCCC)c(OCCCCCCCCCCCC)c4)=C3C(=O)N2CC(OCC)OCC)cc1OCCCCCCCCCCCC`, the absorption maximum (in ClC(Cl)Cl) came out at 496 nm.
`Cc1ccc2c(c1)c1cc(Br)ccc1n2-c1c(C#N)c(-n2c3ccc(Br)cc3c3cc(Br)ccc32)c(-n2c3ccc(Br)cc3c3cc(Br)ccc32)c(C#N)c1-n1c2ccc(Br)cc2c2cc(Br)ccc21`: the absorption maximum (in Cc1ccccc1) came out at 339 nm.
Under “in C1CCCCC1”, `COOCc1noc(-c2ccccc2)c1Cl` showed an absorption maximum of 277 nm.
Molecule `CCCCN(CCCC)c1ccc(C#Cc2cc(C#Cc3ccc(N(CCCC)CCCC)cc3)c(C#Cc3ccc(C#N)cc3)cc2C#Cc2ccc(C#N)cc2)cc1` returned an absorption maximum (in ClCCl) of 435 nm.
In turn, `Cc1ccc2[nH]c(-c3ccc(-c4ccc(-c5ccc(-c6nc7cc(C)ccc7[nH]6)cc5)c(C)c4)cc3)nc2c1` showed an absorption maximum (in CN(C)C=O) of 333 nm.
Under “in c1cc(-c2cccc(-n3c4ccccc4c4ccccc43)c2)cc(-n2c3ccccc3c3ccccc32)c1”, `c1ccc(-c2nc(-c3ccccc3)nc(-c3ccc(-c4ccc5c(c4)C4(c6ccccc6-c6ccccc64)c4ccccc4N5c4ccccc4)cc3)n2)cc1` yielded an absorption maximum of 387.78 nm.
Molecule `CCn1c2ccccc2c2cc(/C=C3\C(=O)c4ccccc4S3(=O)=O)ccc21` came in with an absorption maximum (in C1CCOC1) of 446 nm; an absorption maximum (in C1COCCO1) of 443 nm; an absorption maximum (in CC#N) of 442 nm; an absorption maximum (in CC(C)=O) of 442 nm; an absorption maximum (in CCOC(C)=O) of 441 nm; an absorption maximum (in CN(C)C=O) of 449 nm. Moreover, the absorption maximum runs as follows: (in CO) 446 nm; (in CS(C)=O) 454 nm; (in Cc1ccccc1) 453 nm; (in ClC(Cl)Cl) 454 nm; (in ClCCl) 448 nm.
Take `CC(C)(C)c1ccc2ccc3c(C(C)(C)C)ccc4ccc1c2c43`: the absorption maximum reads like this: (in CCCCCC) 346 nm; (in CO) 345 nm; (in ClCCl) 348 nm.
Where the note is “in Cc1ccccc1”, `c1ccc(-c2cc(-c3ccc(N4c5ccccc5C(c5ccccc5)(c5ccccc5)c5ccccc54)cn3)nc(-c3ccccc3)n2)cc1` returned an absorption maximum of 378.85 nm.
Molecule `CC[n+]1c(-c2ccccc2)c2cc(NC(N)=[NH2+])ccc2c2ccc(N)cc21` showed an absorption maximum (in O) of 454 nm.
`Cc1cc2nc3cc(C)c(N)cc3[n+](-c3ccccc3)c2cc1N`: the absorption maximum reads like this: (in CC(C)O) 537.1 nm; (in CCO) 534 nm; (in CO) 529 nm; (in O) 520 nm.
Turning to `COc1ccc(-c2nc3ccccc3nc2/C=C/N2CCCC2)s1`, for the setting “in CC#N”, the absorption maximum is 456 nm.
On to `C1=C(c2ccccc2)C2=Nc3c(-c4ccccc4)cc4n3[B-]3(Oc5ccccc5C1=[N+]23)Oc1ccccc1-4` (centres undefined), for which the absorption maximum (in Cc1ccccc1) is reported as 728 nm.
`COc1ccc(-c2cc(N3CCCCC3)c(C#N)c3c2-c2cccc4cccc-3c24)cc1`: where the note is “in O”, the absorption maximum is reported as 430 nm.
Take `CCOC(=O)COc1ccc(/C=C/c2cc(C)c3n2[B-](F)(F)[N+]2=C(c4[nH]c(C)cc4C)c4ccccc4C2=C3)cc1`: the absorption maximum is, setting by setting: (in C1CCOC1) 679 nm; (in CC#N) 670 nm; (in CCCCCC) 679 nm; (in CO) 671 nm; (in Cc1ccccc1) 678 nm; (in ClCCl) 680 nm.
`CCOC(=O)c1c2c3c(ccc(Cl)c3c3cc4ccccc4cc13)N(C)C2=O` gave an absorption maximum (in CC#N) of 408 nm.
As for `CCCc1ccc(C#Cc2cc(C#Cc3ccc(CCC)cc3)c3ccc4c(C#Cc5ccc(CCC)cc5)cc(C#Cc5ccc(CCC)cc5)c5ccc2c3c54)cc1`, the absorption maximum (in ClCCl) is listed as 470 nm.
For `COc1ccc(/C=C2\OC(=O)c3ccccc32)cc1`, where the note is “in CC#N”, the absorption maximum amounted to 336 nm.
`CCCCCCOc1cc(N(CC)CC)ccc1/C=C/C(=C(C#N)C#N)c1ccc2c(c1)c1ccccc1n2CC` had an absorption maximum (in ClCCl) of 504 nm.
`CCCCCCN1C(=O)c2cccc3c(-c4sc(-c5ccc6c7c(cccc57)C(=O)N(CCCCCC)C6=O)c5c4OCCO5)ccc(c23)C1=O`: the absorption maximum (in ClC(Cl)Cl) was 416 nm.
Regarding `CCC1=C(C)C2=Cc3cc(I)cn3[B-](F)(F)[N+]2=C1C`, the absorption maximum came to 528 nm (in C1CCCCC1); 509.5 nm (in CC(C)=O); 514 nm (in CCO); 513 nm (in CCOC(C)=O); 511.5 nm (in CO); 504 nm (in OCC(F)(F)F).
Turning to `COc1ccc(C2=[N+]3C(=Nc4c(-c5cc(OC)c(OC)c(OC)c5)c(-c5ccc(C(C)(C)C)cc5)c(-c5ccc(OC)cc5)n4[B-]3(F)F)C(c3cc(OC)c(OC)c(OC)c3)=C2c2ccc(C(C)(C)C)cc2)cc1`, the absorption maximum (in Cc1ccccc1) is recorded as 694 nm.
For `Cc1ccc(-c2[nH]c(=O)n3c2-c2ccccc2C3=O)c(O)c1`, the absorption maximum (in CC#N) is given as 393 nm, the absorption maximum (in CO) came to 397 nm and the absorption maximum (in ClCCl) is 393 nm.
Under “in CC#N”, `CC1=[N+]2C(=C(c3ccccc3)c3c4c(c(C)n3[B-]2(F)F)CCc2ccccc2-4)C2=C1CCc1ccccc12` returned an absorption maximum of 565 nm.
`CCC(=O)c1ccc2cc(N(C)C)ccc2c1`: the absorption maximum is 342 nm and 343 nm (in C1CCCCC1); 346 nm (in C1CCOC1); 348 nm (in C1COCCO1); 347 nm and 368 nm (in CC#N); 350 nm (in CC(C)=O); 367 nm (in CC(C)O). Further, the absorption maximum is 367 nm (in CCC(C)=O); 338 nm (in CCCCCC); 343 nm (in CCCCCCC); 360 nm (in CCCCCCCCO); 343 nm (in CCN(CC)CC); 362 nm and 369 nm (in CCO). The absorption maximum is, setting by setting: (in CCOC(C)=O) 352 nm; (in CN(C)C=O) 350 nm; (in CO) 362 nm; (in CS(C)=O) 359 nm and 369 nm; (in Cc1ccccc1) 345 nm and 349 nm; (in ClC(Cl)Cl) 358 nm. Further, the absorption maximum (in ClCCl) is 355 nm and 358 nm; the absorption maximum (in Clc1ccccc1) was 254 nm and 354 nm; the absorption maximum (in O) came out at 364 nm; the absorption maximum (in OCC(O)CO) turned out to be 370 nm; the absorption maximum (in OCCO) worked out at 375 nm; the absorption maximum (in c1ccccc1) turned out to be 355 nm.
